The values below come from ChEMBL document CHEMBL1144373, “NMDA-NR2B subtype selectivity of stereoisomeric 2-(1,2,3,4-tetrahydro-1-isoquinolyl)ethanol derivatives” (Bioorg Med Chem Lett, 2005).

The target of test [1] is Glutamate [NMDA] receptor. The test can be described thus: Mean inhibitory concentration against [3H]ifenprodil binding to porcine N-methyl-D-aspartate (NMDA) glutamate receptor; n=3. Type of test: protein-complex assay, Sus scrofa.
The target of test [2] is Glutamate [NMDA] receptor. The test can be described thus: Mean inhibitory concentration against [3H]MK-801 binding to porcine N-methyl-D-aspartate (NMDA) glutamate receptor; n=3. In kind it is protein-complex assay, Sus scrofa.
The target in test [3] is Glutamate [NMDA] receptor (Homo sapiens) (UniProt Q05586+Q12879+Q13224+O15399+O60391+Q14957+Q8TCU5). Briefly: Specific binding of [3H]ifenprodil to N-methyl-D-aspartate (NMDA) glutamate receptor remaining in presence of 100 uM inhibitor. Type of test: protein-complex assay. The note with it: Sus scrofa.
Test [4] concerns the target Glutamate [NMDA] receptor. Briefly: Mean inhibitory constant against porcine N-methyl-D-aspartate (NMDA) glutamate receptor; n=3. Type of test: protein-complex assay, Sus scrofa.
Test [5] has as its target Glutamate [NMDA] receptor. Briefly: Mean inhibitory concentration against [3H]ifenprodil binding to porcine N-methyl-D-aspartate (NMDA) glutamate receptor; n=1. Type of test: protein-complex assay, Sus scrofa.
Test [6] has as its target Glutamate [NMDA] receptor. The test can be described thus: Mean inhibitory constant against porcine N-methyl-D-aspartate (NMDA) glutamate receptor; n=1. Type of test: protein-complex assay, Sus scrofa.
A short description of test [7]: Mean inhibitory concentration against rat N-methyl-D-aspartate (NMDA) glutamate receptor 1a/2D expressed in Xenopus oocytes. In kind it is cell-based. The note with it: oocyte.
Test [8] concerns the target Glutamate NMDA receptor; Grin1/Grin2c (Rattus norvegicus, UniProt P35439+Q00961). The test can be described thus: Mean inhibitory concentration against rat N-methyl-D-aspartate (NMDA) glutamate receptor 1a/2C expressed in Xenopus oocytes. Type of test: cell-based, Oocyte.
For test [9], the target named is Glutamate NMDA receptor; Grin1/Grin2a (Rattus norvegicus, UniProt P35439+Q00959). Briefly: Mean inhibitory concentration against rat N-methyl-D-aspartate (NMDA) glutamate receptor 1a/2A expressed in Xenopus oocytes. In kind it is cell-based, Oocyte.
Test [10] concerns the target Glutamate NMDA receptor; Grin1/Grin2b (Rattus norvegicus, UniProt P35439+Q00960). The test can be described thus: Mean inhibitory concentration against rat N-methyl-D-aspartate (NMDA) glutamate receptor 1a/2B expressed in Xenopus oocytes. In kind it is cell-based, Oocyte.

Molecules are shown by their SMILES.

Chain of Glutamate NMDA receptor; Grin1/Grin2c (Q00961 whole entry, other chains not shown): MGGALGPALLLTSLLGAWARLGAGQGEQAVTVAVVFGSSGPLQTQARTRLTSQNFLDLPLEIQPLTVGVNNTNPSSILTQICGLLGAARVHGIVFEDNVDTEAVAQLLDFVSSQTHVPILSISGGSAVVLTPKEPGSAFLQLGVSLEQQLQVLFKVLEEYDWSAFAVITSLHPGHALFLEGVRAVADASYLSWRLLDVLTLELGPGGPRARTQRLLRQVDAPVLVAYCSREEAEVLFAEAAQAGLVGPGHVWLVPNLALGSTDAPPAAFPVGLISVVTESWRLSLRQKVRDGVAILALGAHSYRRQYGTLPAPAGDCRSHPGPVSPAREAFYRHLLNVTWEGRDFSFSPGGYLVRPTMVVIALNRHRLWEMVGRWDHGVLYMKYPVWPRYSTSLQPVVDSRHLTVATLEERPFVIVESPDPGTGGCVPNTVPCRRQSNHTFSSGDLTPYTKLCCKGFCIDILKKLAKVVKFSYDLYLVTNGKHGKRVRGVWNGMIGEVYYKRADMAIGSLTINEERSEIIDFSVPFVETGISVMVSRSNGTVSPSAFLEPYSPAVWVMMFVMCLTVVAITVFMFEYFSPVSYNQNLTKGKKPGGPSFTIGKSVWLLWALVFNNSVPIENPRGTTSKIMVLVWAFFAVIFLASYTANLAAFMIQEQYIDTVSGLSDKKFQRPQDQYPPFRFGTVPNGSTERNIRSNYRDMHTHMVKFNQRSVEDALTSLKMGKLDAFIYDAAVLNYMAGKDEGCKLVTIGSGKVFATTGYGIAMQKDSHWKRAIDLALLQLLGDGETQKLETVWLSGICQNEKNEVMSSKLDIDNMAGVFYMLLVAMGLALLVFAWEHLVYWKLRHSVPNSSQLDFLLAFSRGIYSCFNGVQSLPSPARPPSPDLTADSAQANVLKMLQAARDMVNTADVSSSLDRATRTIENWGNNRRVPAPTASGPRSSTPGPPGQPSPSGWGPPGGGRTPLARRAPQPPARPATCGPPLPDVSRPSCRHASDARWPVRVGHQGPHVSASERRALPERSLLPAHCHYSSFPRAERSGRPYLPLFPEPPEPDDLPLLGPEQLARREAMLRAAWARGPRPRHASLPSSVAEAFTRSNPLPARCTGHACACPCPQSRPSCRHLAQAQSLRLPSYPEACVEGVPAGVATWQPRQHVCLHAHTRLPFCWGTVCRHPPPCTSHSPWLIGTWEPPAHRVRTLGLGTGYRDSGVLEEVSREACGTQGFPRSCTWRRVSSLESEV
Chain of Glutamate NMDA receptor; Grin1/Grin2a (Q00959 whole entry, other chains not shown): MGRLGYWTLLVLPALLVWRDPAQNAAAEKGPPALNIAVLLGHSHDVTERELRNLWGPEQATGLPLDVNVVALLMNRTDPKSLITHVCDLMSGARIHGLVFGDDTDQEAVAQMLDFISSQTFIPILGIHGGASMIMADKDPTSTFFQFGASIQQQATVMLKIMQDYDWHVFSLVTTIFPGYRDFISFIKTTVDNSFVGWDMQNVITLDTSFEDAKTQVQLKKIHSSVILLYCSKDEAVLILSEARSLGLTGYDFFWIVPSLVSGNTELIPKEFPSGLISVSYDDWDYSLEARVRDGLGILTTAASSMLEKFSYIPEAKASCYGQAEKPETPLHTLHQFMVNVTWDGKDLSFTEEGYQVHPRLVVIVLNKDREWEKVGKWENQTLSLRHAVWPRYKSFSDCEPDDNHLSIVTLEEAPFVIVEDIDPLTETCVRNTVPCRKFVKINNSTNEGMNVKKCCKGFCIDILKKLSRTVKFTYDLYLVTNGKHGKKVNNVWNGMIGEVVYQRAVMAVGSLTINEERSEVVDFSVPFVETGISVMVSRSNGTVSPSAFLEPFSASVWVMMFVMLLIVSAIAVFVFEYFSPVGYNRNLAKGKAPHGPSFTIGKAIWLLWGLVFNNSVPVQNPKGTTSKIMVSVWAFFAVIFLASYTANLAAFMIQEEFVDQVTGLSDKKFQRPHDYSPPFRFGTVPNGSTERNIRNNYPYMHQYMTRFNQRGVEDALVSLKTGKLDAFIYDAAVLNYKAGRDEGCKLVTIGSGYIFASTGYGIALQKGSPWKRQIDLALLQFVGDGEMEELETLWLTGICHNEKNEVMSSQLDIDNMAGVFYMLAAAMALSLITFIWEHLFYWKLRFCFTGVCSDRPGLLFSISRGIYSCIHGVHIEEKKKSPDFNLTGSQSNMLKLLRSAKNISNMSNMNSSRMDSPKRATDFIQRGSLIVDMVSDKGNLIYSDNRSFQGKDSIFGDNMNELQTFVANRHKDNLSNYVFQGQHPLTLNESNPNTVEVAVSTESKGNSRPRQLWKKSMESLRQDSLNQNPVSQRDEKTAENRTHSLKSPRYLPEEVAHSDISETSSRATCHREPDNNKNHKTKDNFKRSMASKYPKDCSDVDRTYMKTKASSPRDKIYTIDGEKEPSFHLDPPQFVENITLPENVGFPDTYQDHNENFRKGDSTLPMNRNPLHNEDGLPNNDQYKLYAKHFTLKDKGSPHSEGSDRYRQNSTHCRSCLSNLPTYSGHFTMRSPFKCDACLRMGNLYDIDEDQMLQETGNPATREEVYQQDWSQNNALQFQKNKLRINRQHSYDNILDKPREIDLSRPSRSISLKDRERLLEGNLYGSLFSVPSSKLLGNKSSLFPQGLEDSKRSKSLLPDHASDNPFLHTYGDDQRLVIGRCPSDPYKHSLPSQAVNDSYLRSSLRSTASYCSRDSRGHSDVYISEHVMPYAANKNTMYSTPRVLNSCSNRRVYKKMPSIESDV
Chain of Glutamate NMDA receptor; Grin1/Grin2b (Q00960 whole entry, other chains not shown): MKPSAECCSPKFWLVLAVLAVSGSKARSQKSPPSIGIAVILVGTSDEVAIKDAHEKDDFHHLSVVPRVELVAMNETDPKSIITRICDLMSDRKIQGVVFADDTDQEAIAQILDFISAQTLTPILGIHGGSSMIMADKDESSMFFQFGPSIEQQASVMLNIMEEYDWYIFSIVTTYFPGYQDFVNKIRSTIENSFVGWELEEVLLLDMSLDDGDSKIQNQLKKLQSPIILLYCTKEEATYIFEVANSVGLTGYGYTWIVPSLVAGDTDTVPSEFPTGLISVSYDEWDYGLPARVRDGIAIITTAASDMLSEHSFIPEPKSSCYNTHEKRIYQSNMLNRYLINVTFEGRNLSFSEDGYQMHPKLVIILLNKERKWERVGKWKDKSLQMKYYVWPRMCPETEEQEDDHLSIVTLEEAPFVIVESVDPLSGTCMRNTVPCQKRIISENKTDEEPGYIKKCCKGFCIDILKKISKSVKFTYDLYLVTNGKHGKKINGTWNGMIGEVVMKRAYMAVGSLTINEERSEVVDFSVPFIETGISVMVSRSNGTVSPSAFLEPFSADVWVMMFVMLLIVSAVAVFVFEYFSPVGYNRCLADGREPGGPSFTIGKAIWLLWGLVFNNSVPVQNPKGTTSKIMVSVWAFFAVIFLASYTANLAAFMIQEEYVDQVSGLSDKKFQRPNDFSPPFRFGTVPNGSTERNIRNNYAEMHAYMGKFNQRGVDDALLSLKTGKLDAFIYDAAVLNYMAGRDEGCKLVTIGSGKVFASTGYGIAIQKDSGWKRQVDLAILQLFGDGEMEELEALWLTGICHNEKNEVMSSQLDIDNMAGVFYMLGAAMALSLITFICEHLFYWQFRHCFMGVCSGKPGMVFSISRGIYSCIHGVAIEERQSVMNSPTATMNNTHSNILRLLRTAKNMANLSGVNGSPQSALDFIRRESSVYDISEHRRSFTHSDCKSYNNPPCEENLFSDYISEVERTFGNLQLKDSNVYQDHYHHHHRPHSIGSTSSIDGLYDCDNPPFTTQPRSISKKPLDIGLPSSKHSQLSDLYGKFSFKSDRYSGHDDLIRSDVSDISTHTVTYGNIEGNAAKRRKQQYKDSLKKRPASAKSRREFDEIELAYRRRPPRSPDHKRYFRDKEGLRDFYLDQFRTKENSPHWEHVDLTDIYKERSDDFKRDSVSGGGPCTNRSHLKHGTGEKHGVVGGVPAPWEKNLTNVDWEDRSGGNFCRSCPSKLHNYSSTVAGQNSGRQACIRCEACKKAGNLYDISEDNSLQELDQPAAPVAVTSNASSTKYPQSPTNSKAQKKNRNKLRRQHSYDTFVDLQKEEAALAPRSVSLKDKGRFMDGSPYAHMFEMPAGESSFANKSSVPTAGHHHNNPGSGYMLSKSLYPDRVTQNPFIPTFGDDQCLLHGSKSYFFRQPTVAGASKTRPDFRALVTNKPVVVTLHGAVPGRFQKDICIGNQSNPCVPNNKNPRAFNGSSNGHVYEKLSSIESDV

Regarding `COc1ccc([C@@H](O)C[C@@H]2NCCc3cc(OC)c(OC)cc32)cc1`, the 50% inhibitory concentration (IC50) in test [1] came to 14 µM; in test [2], 29 µM.
As for `COc1ccc([C@H](O)C[C@H]2NCCc3cc(OC)c(OC)cc32)cc1`, in [2], the IC50 was 120 µM. Also, the Binding in test [3] came out at 63%. For the same molecule, the inhibitory constant (Ki) in test [4] stood at 0.72 µM.
Regarding `COc1ccc([C@H](O)C[C@@H]2c3cc(OC)c(OC)cc3CCN2C)cc1`, in [3], the Binding was 50%. In [4], this molecule came in with a Ki of 0.06 µM.
`COc1cc2c(cc1OC)[C@@H](C[C@@H](O)c1ccc(Cl)cc1)N(C)CC2`: the half-maximal inhibitory concentration (IC50) in test [1] was found to be 100 µM; in [2] it was 56 µM. Also, the inhibition constant Ki in test [4] was 0.007 µM.
As for `COc1ccc([C@H](O)C[C@@H]2NCCc3cc(OC)c(OC)cc32)cc1`, the IC50 in test [2] is 110 µM; in [5], 243 µM. The molecule further registered a Ki in [4] of 5.8 µM.
In [2], `COc1ccc([C@@H](O)C[C@@H]2c3cc(OC)c(OC)cc3CCN2C)cc1` came in with an IC50 of 120 µM. Moreover, in test [3], the Binding was found to be 87%. Further, the Ki in [4] was found to be 0.38 µM.
`COc1cc2c(cc1OC)[C@H](C[C@@H](O)c1ccc(Cl)cc1)N(C)CC2`: the IC50 in test [1] is 52 µM; in [2], 45 µM. In [4], this molecule registered an inhibition constant (Ki) of 2.7 µM.
In the case of `COc1ccc([C@H](O)C[C@H]2c3cc(OC)c(OC)cc3CCN2C)cc1`, the Ki in test [6] was found to be 22 µM. Moreover, in [3], the Binding was determined as 34%.
With `COc1cc2c(cc1OC)[C@H](C[C@@H](O)c1ccc(Cl)cc1)NCC2`, the figures for the IC50 in [1] and in [2] were 95 µM and 34 µM, respectively. For the same molecule, the Ki in test [4] worked out at 2.6 µM.
`COc1ccc([C@@H](O)C[C@H]2c3cc(OC)c(OC)cc3CCN2C)cc1`: the half-inhibitory concentration (IC50) stood at 0.24 µM in test [1]; 4.6 µM in test [2]; 341 µM in test [7]; 155 µM in [8]; 107 µM in test [9]; 3.16 µM in test [10]. The affinity in test [4], expressed as Ki, was 2.7 µM.
Regarding `COc1ccc([C@@H](O)C[C@H]2NCCc3cc(OC)c(OC)cc32)cc1`, the 50% inhibitory concentration (IC50) in test [2] was found to be 140 µM; in [5], 420 µM. The same molecule yielded an inhibition constant Ki in test [4] of 11 µM.
Turning to `COc1cc2c(cc1OC)[C@@H](C[C@H](O)c1ccc(Cl)cc1)NCC2`, the IC50 in [1] was 43 µM; in [2], 40 µM. In [4], this molecule came in with an inhibitory constant (Ki) of 6.7 µM.
Turning to `COc1cc2c(cc1OC)[C@@H](C[C@@H](O)c1ccc(Cl)cc1)NCC2`, the IC50 in test [2] stood at 37 µM; in test [5], 290 µM. Besides, the affinity in [4] corresponds to a Ki of 0.26 µM.
On to `COc1cc2c(cc1OC)[C@@H](C[C@H](O)c1ccc(Cl)cc1)N(C)CC2`, for which the figures for the IC50 in [1] and in test [2] were 24 µM and 31 µM, respectively. The same molecule had an inhibition constant (Ki) in [4] of 0.11 µM.
As to `COc1cc2c(cc1OC)[C@H](C[C@H](O)c1ccc(Cl)cc1)N(C)CC2`, the IC50 in test [1] stood at 0.059 µM; in test [2] it was 0.96 µM; in test [7] it was 27.5 µM; in [8], 5.29 µM; in test [9], 137 µM; in test [10] it was 1.32 µM. Further, the Ki in [4] is 0.5 µM.
With `COc1cc2c(cc1OC)[C@H](C[C@H](O)c1ccc(Cl)cc1)NCC2`, the IC50 in test [1] was 1.1 µM; in test [2], 7.4 µM; in test [7], 48.4 µM; in [8] it was 24.9 µM; in test [9] it was 104 µM; in test [10] it was 10.5 µM. Moreover, in test [4], affinity was put at a Ki of 0.92 µM.
